# Data taken from patent publication US8017612B2, “Piperazine compound and use thereof as a HCV polymerase inhibitor” (priority 2006, dated 2011).
# Where a name gives a salt, the structure may show the parent alone.
# Legend:
# [1] = target: T1, HCV polymerase (NS5B) type 1b (Hepatitis C virus genotype 1b, UniProt P26663); test: Assay of enzyme (HCV polymerase) inhibitory activity, type 1b enzyme; assay type: biochemical, HCV BK strain (type 1b)
# T1 construct: a region encoding NS5B (J Virol 1991 March, 65(3), 1105-13, 544 amino acids after deletion of 47 amino acids on the C-terminal); 6xHis (C); made in house; host or cells: Escherichia coli
# How it was run: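 IC50 derived from [3H]UTP incorporation into TCA-insoluble RNA, compared with and without test compound. Reaction (25 °C, 60 min, Tris pH 7.5, 5 mM MgCl2): E. coli-expressed 1b NS5B Δ47 with His tag at 0.5 μg/ml, 5 μg/ml run-off substrate RNA, ATP/GTP/CTP 50 μM, UTP 2 μM.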
# [2] = target: T2, HCV polymerase (NS5B) type 1a (Hepatitis C virus genotype 1a, UniProt P26664); test: Assay of enzyme (HCV polymerase) inhibitory activity, type 1a enzyme; assay type: biochemical, HCV type 1a (cloned from the blood of patients)
# T2 construct: made in house; host or cells: Escherichia coli (by the 'similar method' of the 1b enzyme)
# How it was run: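 Reactions ran 60 min at 25° C in 20 mM Tris-HCl pH 7.5, 5 mM MgCl2, 50 mM NaCl, holding genotype 1a NS5B (1.5 μg/ml, Δ47 C-terminus, 6His), substrate RNA 5 μg/ml, UTP 2 μM with tritiated UTP and other NTPs 50 μM. IC50 derived from incorporated radiolabel in filter-trapped RNA relative to uninhibited reaction.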
# [3] = HCV polymerase inhibitory activity (IC50), 1b, type 1b enzyme 0.5 μg/ml, 25° C., 60 min
# [4] = HCV polymerase inhibitory activity (IC50), 1a, type 1a enzyme 1.5 μg/ml, 25° C., 60 min
# [5] = HCV polymerase inhibitory activity IC50, 1b, type 1b enzyme
# [6] = HCV polymerase inhibitory activity IC50, 1a, type 1a enzyme
smiles,measurement,setting,value
"CC(=O)N1CCN(S(=O)(=O)c2ccc(C(C)C)cc2)[C@@H](C(=O)NCc2ccc(C(C)(C)C(=O)O)cc2)C1 [Example 231, 2-[4-({[(R)-4-acetyl-1-(4-isopropyl-benzenesulfonyl)-piperazine-2-carbonyl]-amino}-methyl)-phenyl]-2-methyl-propionic acid]",IC50,[1]; [3],> 1000 nM
same,IC50,[2]; [4],> 1000 nM
"COC(=O)CCCCC(=O)N1CCN(S(=O)(=O)c2ccc(C(F)(F)F)cc2)[C@@H](C(=O)NCc2ccc(C(C)C)cc2)C1 [Example 212, 6-[(R)-3-(4-isopropyl-benzylcarbamoyl)-4-(4-trifluoromethyl-benzenesulfonyl)-piperazin-1-yl]-6-oxo-hexanoic acid methyl ester]",IC50,[1]; [3],< 100 nM
same,IC50,[2]; [4],100 to 1000 nM
"O=C(NCc1ccc(OC(F)F)cc1)[C@H]1CN(c2nn3ccc(=O)nc3s2)CCN1S(=O)(=O)c1ccc(C(F)(F)F)cc1 [Example 1057, (R)-4-(7-oxo-7H-[1,3,4]thiadiazolo[3,2-a]pyrimidin-2-yl)-1-(4-trifluoromethyl-benzenesulfonyl)-piperazine-2-carboxylic acid 4-difluoromethoxy-benzylamide]",IC50,[1]; [5],< 100 nM
same,IC50,[2]; [6],< 100 nM
"CC(C)(C)c1ccc(CNC(=O)[C@H]2CN(c3cnc4cnccc4n3)CCN2S(=O)(=O)c2ccc(OC(F)(F)F)cc2)cc1 [Example 689, (R)-4-pyrido[3,4-b]pyrazin-2-yl-1-(4-trifluoromethoxy-benzenesulfonyl)-piperazine-2-carboxylic acid 4-tert-butyl-benzylamide]",IC50,[1]; [5],< 100 nM
same,IC50,[2]; [6],< 100 nM
"O=C(NCc1ccc(OC(F)(F)F)cc1)[C@H]1CN(c2nc3cnncc3s2)CCN1S(=O)(=O)c1ccc(OC(F)(F)F)cc1 [Example 879, (R)-4-thiazolo[4,5-d]pyridazin-2-yl-1-(4-trifluoromethoxy-benzenesulfonyl)-piperazine-2-carboxylic acid 4-trifluoromethoxy-benzylamide]",IC50,[1]; [5],< 100 nM
same,IC50,[2]; [6],< 100 nM
"CN(C)c1ccc(CNC(=O)[C@H]2CN(c3cnc4cncnc4n3)CCN2S(=O)(=O)c2ccc(OC(F)(F)F)cc2)cn1 [Example 630, (R)-4-pteridin-7-yl-1-(4-trifluoromethoxy-benzenesulfonyl)-piperazine-2-carboxylic acid (6-dimethylamino-pyridin-3-ylmethyl)-amide]",IC50,[1]; [3],< 100 nM
same,IC50,[2]; [4],< 100 nM
"CC(=O)N1CCN(S(=O)(=O)c2ccc(OC(F)(F)F)c(C(=O)O)c2)[C@@H](C(=O)NCc2ccc(C(C)C)cc2)C1 [Example 305, 5-[(R)-4-acetyl-2-(4-isopropyl-benzylcarbamoyl)-piperazine-1-sulfonyl]-2-trifluoromethoxy-benzoic acid]",IC50,[1]; [3],< 100 nM
same,IC50,[2]; [4],100 to 1000 nM
"CC(=O)N1CCN(S(=O)(=O)c2ccc(CCC(=O)O)s2)[C@@H](C(=O)NCc2ccc(C(C)C)cc2)C1 [Example 283, 3-{5-[(R)-4-acetyl-2-(4-isopropyl-benzylcarbamoyl)-piperazine-1-sulfonyl]-thiophen-2-yl}-propionic acid]",IC50,[1]; [3],> 1000 nM
same,IC50,[2]; [4],> 1000 nM
"O=C(NCc1ccc(OC(F)(F)F)cc1)[C@H]1CN(c2nc3c(=O)[nH]ncc3s2)CCN1S(=O)(=O)c1ccc(OC(F)(F)F)cc1 [Example 937, (R)-4-(4-oxo-4,5-dihydro-thiazolo[4,5-d]pyridazin-2-yl)-1-(4-trifluoromethoxy-benzenesulfonyl)-piperazine-2-carboxylic acid 4-trifluoromethoxy-benzylamide]",IC50,[1]; [5],< 100 nM
same,IC50,[2]; [6],< 100 nM
"CC(C)c1ccc(CNC(=O)[C@H]2CN(C(=O)Cn3cnnn3)CCN2S(=O)(=O)c2ccc(C(F)(F)F)cc2)cc1 [Example 257, (R)-4-(2-tetrazol-1-yl-acetyl)-1-(4-trifluoromethyl-benzenesulfonyl)-piperazine-2-carboxylic acid 4-isopropyl-benzylamide]",IC50,[1]; [3],< 100 nM
same,IC50,[2]; [4],< 100 nM
"COc1ccc(S(=O)(=O)N2CCN(C(C)=O)C[C@@H]2C(=O)NCc2ccc(C(C)C)cc2)cc1CCC(=O)O [Example 222, 3-{5-[(R)-4-acetyl-2-(4-isopropyl-benzylcarbamoyl)-piperazine-1-sulfonyl]-2-methoxy-phenyl}-propionic acid]",IC50,[1]; [3],100 to 1000 nM
same,IC50,[2]; [4],100 to 1000 nM
"CSc1ccc(CNC(=O)[C@H]2CN(c3cnc4cncnc4n3)CCN2S(=O)(=O)c2ccc(OC(F)(F)F)cc2)cc1 [Example 661, (R)-4-pteridin-7-yl-1-(4-trifluoromethoxy-benzenesulfonyl)-piperazine-2-carboxylic acid 4-methylsulfanyl-benzylamide]",IC50,[1]; [5],< 100 nM
same,IC50,[2]; [6],< 100 nM
"CCOC(=O)Cc1nnn(CC(=O)N2CCN(S(=O)(=O)c3ccc(C(F)(F)F)cc3)[C@@H](C(=O)NCc3ccc(C(C)C)cc3)C2)n1 [Example 309, (2-{2-[(R)-3-(4-isopropyl-benzylcarbamoyl)-4-(4-trifluoromethyl-benzenesulfonyl)-piperazin-1-yl]-2-oxo-ethyl}-2H-tetrazol-5-yl)-acetic acid ethyl ester]",IC50,[1]; [3],< 100 nM
same,IC50,[2]; [4],< 100 nM
"CC(C)c1ccc(CNC(=O)[C@H]2CN(C(=O)Nc3ccnc(C(=O)OC(C)(C)C)c3)CCN2S(=O)(=O)c2ccc(C(F)(F)F)cc2)cc1 [Example 301, 4-{[(R)-3-(4-isopropyl-benzylcarbamoyl)-4-(4-trifluoromethyl-benzenesulfonyl)-piperazine-1-carbonyl]-amino}-pyridine-2-carboxylic acid tert-butyl ester]",IC50,[1]; [3],< 100 nM
same,IC50,[2]; [4],< 100 nM
"CN(C)c1ccc(CNC(=O)[C@H]2CN(C(=O)CN3CCCCC3)CCN2S(=O)(=O)c2ccc(I)cc2)cc1 [Example 158, (R)-1-(4-iodo-benzenesulfonyl)-4-(2-piperidin-1-yl-acetyl)-piperazine-2-carboxylic acid 4-dimethylamino-benzylamide]",IC50,[1]; [3],> 1000 nM
same,IC50,[2]; [4],> 1000 nM
"COc1ncc2sc(N3CCN(S(=O)(=O)c4ccc(OC(F)(F)F)cc4)[C@@H](C(=O)NCc4ccc(OC(F)(F)F)cc4)C3)nc2n1 [Example 929, (R)-4-(5-methoxy-thiazolo[4,5-d]pyrimidin-2-yl)-1-(4-trifluoromethoxy-benzenesulfonyl)-piperazine-2-carboxylic acid 4-trifluoromethoxy-benzylamide]",IC50,[1]; [5],< 100 nM
same,IC50,[2]; [6],< 100 nM
"CC(C)c1ccc(S(=O)(=O)N2CCN(C3=NCCS3)CC2C(=O)NCc2ccc(C(F)(F)F)cc2)cc1 (stereo not drawn) [Example 112, 4-(4,5-dihydro-thiazol-2-yl)-1-(4-isopropyl-benzenesulfonyl)-piperazine-2-carboxylic acid 4-trifluoromethyl-benzylamide]",IC50,[1]; [3],> 1000 nM
same,IC50,[2]; [4],> 1000 nM
"CC(=O)N1CCN(S(=O)(=O)c2ccc(Br)cc2)[C@@H](C(=O)NCc2ccc(C(C)C)cc2)C1 [Example 430, (R)-4-acetyl-1-(4-bromo-benzenesulfonyl)-piperazine-2-carboxylic acid 4-isopropyl-benzylamide]",IC50,[1]; [3],100 to 1000 nM
same,IC50,[2]; [4],100 to 1000 nM
"CCCc1ccc(CNC(=O)[C@H]2CN(c3nc4cn[nH]c(=O)c4s3)CCN2S(=O)(=O)c2ccc(C(F)(F)F)cc2)cc1 [Example 820, (R)-4-(7-oxo-6,7-dihydro-thiazolo[4,5-d]pyridazin-2-yl)-1-(4-trifluoromethyl-benzenesulfonyl)-piperazine-2-carboxylic acid 4-propyl-benzylamide]",IC50,[1]; [5],< 100 nM
same,IC50,[2]; [6],< 100 nM
"CCC(F)(F)c1ccc(CNC(=O)[C@H]2CN(c3nc4cn[nH]c(=O)c4s3)CCN2S(=O)(=O)c2ccc(C(F)(F)F)cc2)cc1 [Example 900, (R)-4-(7-oxo-6,7-dihydro-thiazolo[4,5-d]pyridazin-2-yl)-1-(4-trifluoromethyl-benzenesulfonyl)-piperazine-2-carboxylic acid 4-(1,1-difluoro-propyl)-benzylamide]",IC50,[1]; [5],< 100 nM
same,IC50,[2]; [6],< 100 nM
"CC(C)c1ccc(CNC(=O)[C@H]2CN(C(=O)CNCC(=O)O)CCN2S(=O)(=O)c2ccc(C(F)(F)F)cc2)cc1 [Example 384, {2-[(R)-3-(4-isopropyl-benzylcarbamoyl)-4-(4-trifluoromethyl-benzenesulfonyl)-piperazin-1-yl]-2-oxo-ethylamino}-acetic acid hydrochloride]",IC50,[1]; [3],100 to 1000 nM
same,IC50,[2]; [4],100 to 1000 nM
"O=C(NCc1ccc(OC(F)(F)F)cc1)[C@H]1CN(c2cnc3cncnc3n2)CCN1S(=O)(=O)c1ccc(OC(F)(F)F)cc1 [Example 627, (R)-4-pteridin-7-yl-1-(4-trifluoromethoxy-benzenesulfonyl)-piperazine-2-carboxylic acid 4-trifluoromethoxy-benzylamide]",IC50,[1]; [3],< 100 nM
same,IC50,[2]; [4],< 100 nM
"CC(=O)N1CCN(S(=O)(=O)c2ccc(I)cc2)C(C(=O)NCc2ccc(C(F)(F)F)cc2)C1 (stereo not drawn) [Example 61, 4-acetyl-1-(4-iodo-benzenesulfonyl)-piperazine-2-carboxylic acid 4-trifluoromethyl-benzylamide]",IC50,[1]; [3],> 1000 nM
same,IC50,[2]; [4],> 1000 nM
"COC(=O)N1CCN(S(=O)(=O)c2ccc(C(C)C)cc2)C(C(=O)NCc2ccc(C(F)(F)F)cc2)C1 (stereo not drawn) [Example 32, 4-(4-isopropyl-benzenesulfonyl)-3-(4-trifluoromethyl-benzylcarbamoyl)-piperazine-1-carboxylic acid methyl ester]",IC50,[1]; [3],> 1000 nM
same,IC50,[2]; [4],> 1000 nM
